Inhibition and Ki data for 16 molecules are collected here from ChEMBL document CHEMBL3046671, “Molecular design, synthesis and biological activities of amidines as new ketol-acid reductoisomerase inhibitors” (Chin Chem Lett, 2008).

Counter-ions that a name gives are not always drawn. Activity calls are given as the source filed them. The calls are words filed in the database; no cut-off is given here.

The term inhibition denotes the relative decrease from the control value, in per cent. As usually defined, the Ki is a measure of affinity in units of concentration, obtained from inhibition or displacement. Lower therefore signals tighter binding.

The first experiment relates to Echinochloa crus-galli. Nature of the experiment: Herbicidal activity against Echinochloa crus-galli (barnyard grass) assessed as inhibition at 100 ug/ml by barnyardgrass cup test. Type of experiment: functional.
For `N=C(N)c1ccc(OCc2ccc(Cl)cc2Cl)cc1`, the inhibition at 100 µg/mL was determined as 62.8%.

In the case of `N=C(N)c1ccc(OCc2cccc(Cl)c2)cc1`, the inhibition at 100 µg/mL worked out at 56.8%.

`CCCCCCCOc1ccc(C(=N)N)cc1` [4-(HEPTYLOXY)BENZIMIDAMIDE HYDROCHLORIDE]: the inhibition at 100 µg/mL was determined as 53%.

For the molecule `CCCCCCOc1ccc(C(=N)N)cc1` [4-(HEXYLOXY)BENZIMIDAMIDE HYDROCHLORIDE], the inhibition at 100 µg/mL came out at 52.1%.

As for `CCOc1ccc(C(=N)N)cc1` [4-ETHOXYBENZIMIDAMIDE HYDROCHLORIDE], the inhibition at 100 µg/mL worked out at 24.4%.

In the case of `COc1ccc(C(=N)N)cc1` [4-METHOXYBENZIMIDAMIDE HYDROCHLORIDE], the inhibition at 100 µg/mL worked out at 18.3%.

Consider `N=C(N)c1ccc(OCCCCCOc2ccc(C(=N)N)cc2)cc1` [PENTAMIDINE ISETHIONATE], for which the inhibition at 100 µg/mL is 59.6%.

Another experiment concerns Brassica napus. Nature of the experiment: Herbicidal activity against Brassica napus (oilseed rape) assessed as inhibition at 100 ug/ml by rape toot test. It counts as functional.
On to `N=C(N)c1ccc(OCc2ccc(Cl)cc2Cl)cc1`, for which the inhibition at 100 µg/mL amounted to 95.6%.

In the case of `N=C(N)c1ccc(OCc2cccc(Cl)c2)cc1`, the inhibition at 100 µg/mL stood at 95.2%.

With `CCCCCCCOc1ccc(C(=N)N)cc1` [4-(HEPTYLOXY)BENZIMIDAMIDE HYDROCHLORIDE], the inhibition at 100 µg/mL is 96.3%.

Regarding `CCCCCCOc1ccc(C(=N)N)cc1` [4-(HEXYLOXY)BENZIMIDAMIDE HYDROCHLORIDE], the inhibition at 100 µg/mL stood at 94%.

Turning to `CCOc1ccc(C(=N)N)cc1` [4-ETHOXYBENZIMIDAMIDE HYDROCHLORIDE], the inhibition at 100 µg/mL was found to be 57.1%.

In the case of `COc1ccc(C(=N)N)cc1` [4-METHOXYBENZIMIDAMIDE HYDROCHLORIDE], the inhibition at 100 µg/mL is 48.5%.

Regarding `N=C(N)c1ccc(OCCCCCOc2ccc(C(=N)N)cc2)cc1` [PENTAMIDINE ISETHIONATE], the inhibition at 100 µg/mL was 90.9%.

The target of the next experiment is T1, Ketol-acid reductoisomerase (NADP(+)) (Escherichia coli (strain K12), UniProt P05793).
T1 sequence (P05793 whole entry): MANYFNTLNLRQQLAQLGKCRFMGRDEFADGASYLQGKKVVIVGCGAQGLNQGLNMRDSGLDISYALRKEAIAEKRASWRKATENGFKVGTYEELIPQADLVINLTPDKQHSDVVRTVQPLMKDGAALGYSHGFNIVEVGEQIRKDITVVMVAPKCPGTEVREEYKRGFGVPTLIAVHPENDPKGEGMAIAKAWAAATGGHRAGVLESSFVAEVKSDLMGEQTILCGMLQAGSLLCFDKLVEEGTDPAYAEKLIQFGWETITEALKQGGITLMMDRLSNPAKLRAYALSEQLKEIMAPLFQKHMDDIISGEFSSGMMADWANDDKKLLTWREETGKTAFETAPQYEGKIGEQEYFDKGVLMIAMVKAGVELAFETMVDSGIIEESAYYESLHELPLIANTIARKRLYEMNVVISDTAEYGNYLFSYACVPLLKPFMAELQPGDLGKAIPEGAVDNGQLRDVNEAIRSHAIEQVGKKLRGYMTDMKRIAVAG
Kind of experiment: Inhibition of Escherichia coli KARI.
With `N=C(N)c1ccc(OCCCCCOc2ccc(C(=N)N)cc2)cc1` [PENTAMIDINE ISETHIONATE], the inhibition constant Ki is 382 µM.

A further experiment relates to Echinochloa crus-galli. Nature of the experiment: Herbicidal activity against Echinochloa crus-galli (barnyard grass) assessed as inhibition at 10 ug/ml by barnyardgrass cup test. It counts as functional.
In the case of `N=C(N)c1ccc(OCc2ccc(Cl)cc2Cl)cc1`, the inhibition at 10 µg/mL turned out to be 21.8%.

Regarding `N=C(N)c1ccc(OCc2cccc(Cl)c2)cc1`, the inhibition at 10 µg/mL amounted to 21.5%.

In the case of `CCCCCCCOc1ccc(C(=N)N)cc1` [4-(HEPTYLOXY)BENZIMIDAMIDE HYDROCHLORIDE], the inhibition at 10 µg/mL was 20.1%.

For the molecule `CCCCCCOc1ccc(C(=N)N)cc1` [4-(HEXYLOXY)BENZIMIDAMIDE HYDROCHLORIDE], the inhibition at 10 µg/mL stood at 5.3%.

Turning to `CCOc1ccc(C(=N)N)cc1` [4-ETHOXYBENZIMIDAMIDE HYDROCHLORIDE], the inhibition result was “inactive”.

In the case of `COc1ccc(C(=N)N)cc1` [4-METHOXYBENZIMIDAMIDE HYDROCHLORIDE], the inhibition at 10 µg/mL turned out to be 16.2%.

Consider `N=C(N)c1ccc(OCCCCCOc2ccc(C(=N)N)cc2)cc1` [PENTAMIDINE ISETHIONATE], for which the inhibition at 10 µg/mL turned out to be 12.6%.

The target in the next experiment is Ketol-acid reductoisomerase, chloroplastic (Oryza sativa subsp. japonica, UniProt Q65XK0). Kind of experiment: Inhibition of Oryza sativa KARI (rice).
Sequence of Ketol-acid reductoisomerase, chloroplastic (Q65XK0 whole entry): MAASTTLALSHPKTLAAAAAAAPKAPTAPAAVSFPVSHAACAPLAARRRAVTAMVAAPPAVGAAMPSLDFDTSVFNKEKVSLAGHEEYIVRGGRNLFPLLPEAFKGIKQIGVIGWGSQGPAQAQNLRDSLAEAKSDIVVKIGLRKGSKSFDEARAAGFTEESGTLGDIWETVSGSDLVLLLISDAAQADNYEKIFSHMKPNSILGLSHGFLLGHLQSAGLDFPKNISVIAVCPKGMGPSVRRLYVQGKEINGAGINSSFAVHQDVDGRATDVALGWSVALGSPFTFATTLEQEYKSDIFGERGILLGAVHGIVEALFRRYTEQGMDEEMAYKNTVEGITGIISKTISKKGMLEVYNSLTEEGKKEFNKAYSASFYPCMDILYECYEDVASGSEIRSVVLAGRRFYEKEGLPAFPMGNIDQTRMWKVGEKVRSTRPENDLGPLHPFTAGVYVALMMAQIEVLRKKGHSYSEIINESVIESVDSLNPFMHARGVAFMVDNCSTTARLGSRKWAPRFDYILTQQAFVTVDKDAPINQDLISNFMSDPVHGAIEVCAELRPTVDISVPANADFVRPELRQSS
On to `N=C(N)c1ccc(OCc2ccc(Cl)cc2Cl)cc1`, for which the affinity corresponds to a Ki of 142 µM.

Molecule `N=C(N)c1ccc(OCc2cccc(Cl)c2)cc1` displayed a Ki of 213 µM.

`N=C(N)c1ccc(OCc2ccc(Cl)cc2)cc1` had an inhibition constant Ki of 411 µM.

`N=C(N)c1ccc(OCc2ccccc2F)cc1` had an inhibitory constant (Ki) of 965 µM.

With `N=C(N)c1ccc(OCc2ccccn2)cc1`, the inhibition constant (Ki) was more than 649 µM.

The molecule `C=CCOc1ccc(C(=N)N)cc1` [4-(ALLYLOXY)BENZIMIDAMIDE HYDROCHLORIDE] returned a Ki of more than 1710 µM.

As for `N=C(N)c1ccc(OCc2ccccc2)cc1` [4-(BENZYLOXY)BENZIMIDAMIDE HYDROCHLORIDE], the Ki is more than 1380 µM.

Consider `CCCCCCCOc1ccc(C(=N)N)cc1` [4-(HEPTYLOXY)BENZIMIDAMIDE HYDROCHLORIDE], for which affinity was put at a Ki of 61 µM.

Take `CCCCCCOc1ccc(C(=N)N)cc1` [4-(HEXYLOXY)BENZIMIDAMIDE HYDROCHLORIDE]: the Ki stood at 190 µM.

Molecule `CCCCCOc1ccc(C(=N)N)cc1` [4-(PENTYLOXY)BENZIMIDAMIDE HYDROCHLORIDE] had an inhibitory constant (Ki) of 1360 µM.

Take `CCCCOc1ccc(C(=N)N)cc1` [4-BUTOXYBENZIMIDAMIDE HYDROCHLORIDE]: the Ki came out at 3530 µM.

Take `CCOc1ccc(C(=N)N)cc1` [4-ETHOXYBENZIMIDAMIDE HYDROCHLORIDE]: the Ki was more than 1900 µM.

The molecule `CC(C)Oc1ccc(C(=N)N)cc1` [4-ISOPROPOXYBENZIMIDAMIDE HYDROCHLORIDE] returned a Ki of more than 1670 µM.

The molecule `COc1ccc(C(=N)N)cc1` [4-METHOXYBENZIMIDAMIDE HYDROCHLORIDE] returned a Ki of more than 2080 µM.

`CCCOc1ccc(C(=N)N)cc1` [4-PROPOXYBENZIMIDAMIDE HYDROCHLORIDE]: the Ki is more than 1670 µM.

On to `N=C(N)c1ccc(OCCCCCOc2ccc(C(=N)N)cc2)cc1` [PENTAMIDINE ISETHIONATE], for which the Ki was determined as 350 µM.

Another experiment relates to Brassica napus. Kind of experiment: Herbicidal activity against Brassica napus (oilseed rape) assessed as inhibition at 10 ug/ml by rape toot test. It counts as functional.
Consider `N=C(N)c1ccc(OCc2ccc(Cl)cc2Cl)cc1`, for which the inhibition at 10 µg/mL was 33.7%.

`N=C(N)c1ccc(OCc2cccc(Cl)c2)cc1`: the inhibition at 10 µg/mL turned out to be 31.9%.

Regarding `CCCCCCCOc1ccc(C(=N)N)cc1` [4-(HEPTYLOXY)BENZIMIDAMIDE HYDROCHLORIDE], the inhibition at 10 µg/mL came out at 30.1%.

As for `CCCCCCOc1ccc(C(=N)N)cc1` [4-(HEXYLOXY)BENZIMIDAMIDE HYDROCHLORIDE], the inhibition at 10 µg/mL came out at 20.4%.

For `CCOc1ccc(C(=N)N)cc1` [4-ETHOXYBENZIMIDAMIDE HYDROCHLORIDE], the inhibition at 10 µg/mL was 18.5%.

As for `COc1ccc(C(=N)N)cc1` [4-METHOXYBENZIMIDAMIDE HYDROCHLORIDE], the inhibition at 10 µg/mL worked out at 6.9%.

For the molecule `N=C(N)c1ccc(OCCCCCOc2ccc(C(=N)N)cc2)cc1` [PENTAMIDINE ISETHIONATE], the inhibition at 10 µg/mL worked out at 22.9%.
